{"source": "ChEMBL document CHEMBL4823265", "about": "“Benzophenones from Betula alnoides with Antiausterity Activities against the PANC-1 Human Pancreatic Cancer Cell Line” (J Nat Prod, 2021)", "key": {"PANC-1 [1]": {"system": "PANC-1", "experiment": "Anti-austerity activity against human PANC-1 cells assessed as cell killing incubated for 24 hrs in nutrient deprived medium by CCK8 assay", "format": "functional"}, "PANC-1 [2]": {"system": "PANC-1", "experiment": "Cytotoxicity against human PANC-1 cells assessed as reduction in cell viability incubated for 24 hrs in nutrient-rich DMEM medium by CCK8 assay", "format": "cell-based", "details": "panc-1, 24 h"}, "PANC-1 [3]": {"system": "PANC-1", "experiment": "Cytotoxicity against human PANC-1 cells assessed as ruptured cell membrane by measuring red fluorescence emission incubated for 24 hrs in nutrient deprived medium by ethidium bromide/acridine orange double staining based fluorescence microscopic analysis", "format": "functional", "details": "dose 5-10 µM"}, "PANC-1 [4]": {"system": "PANC-1", "experiment": "Inhibition of colony formation in human PANC-1 cells treated for 24 hrs followed by replacement with fresh DMEM medium and measured after 10 days by crystal violet staining based assay", "format": "functional, cell-based", "details": "dose 10-40 µM"}, "PANC-1 [5]": {"system": "PANC-1", "experiment": "Cytotoxicity against human PANC-1 cells assessed as swollen cell morphology by measuring red fluorescence emission incubated for 24 hrs in nutrient deprived medium by ethidium bromide/acridine orange double staining based fluorescence microscopic analysis", "format": "functional", "details": "dose 5-10 µM"}, "PANC-1 [6]": {"system": "PANC-1", "experiment": "Cytotoxicity against human PANC-1 cells assessed as membrane blebs by measuring red fluorescence emission incubated for 24 hrs in nutrient deprived medium by ethidium bromide/acridine orange double staining based fluorescence microscopic analysis", "format": "functional, cell-based", "details": "dose 5-10 µM"}, "PANC-1 [7]": {"system": "PANC-1", "experiment": "Cytotoxicity against human PANC-1 cells assessed as inhibition of cell mobility at 5 to 10 uM incubated in nutrient deprived medium measured every 15 mins for 4 hrs by time-lapse live imaging based analysis", "format": "functional", "details": "dose 5-10 µM"}, "PANC-1 [8]": {"system": "PANC-1", "experiment": "Inhibition of colony formation in human PANC-1 cells at 20 uM treated for 24 hrs followed by replacement with fresh DMEM medium and measured after 10 days by crystal violet staining based assay relative to control", "format": "functional"}, "PANC-1 [9]": {"system": "PANC-1", "experiment": "Inhibition of colony formation in human PANC-1 cells at 40 uM treated for 24 hrs followed by replacement with fresh DMEM medium and measured after 10 days by crystal violet staining based assay relative to control", "format": "functional"}, "PANC-1 [10]": {"system": "PANC-1", "experiment": "Cytotoxicity against human PANC-1 cells assessed as membrane blebbing at 10 uM incubated in nutrient deprived medium measured every 15 mins for 13 hrs by time-lapse live imaging based analysis", "format": "functional, cell-based"}, "PANC-1 [11]": {"system": "PANC-1", "experiment": "Cytotoxicity against human PANC-1 cells assessed as cell death at 10 uM incubated in nutrient deprived medium measured every 15 mins for 23 hrs by time-lapse live imaging based analysis", "format": "functional"}, "PANC-1 [12]": {"system": "PANC-1", "experiment": "Cytotoxicity against human PANC-1 cells assessed as cell shrinkage at 5 to 10 uM incubated in nutrient deprived medium measured every 15 mins for 8 hrs by time-lapse live imaging based analysis", "format": "functional", "details": "dose 5-10 µM"}, "PANC-1 [13]": {"system": "PANC-1", "experiment": "Inhibition of colony formation in human PANC-1 cells at 10 to 40 uM treated for 24 hrs followed by replacement with fresh DMEM medium and measured after 10 days by crystal violet staining based assay relative to control", "format": "functional", "details": "dose 10-40 µM"}}, "note": "Active and inactive are the calls of the source. The calls are words filed in the database; no cut-off is given here.", "data": [{"molecule": "CC(C)=CCC/C(C)=C/CC[C@]1(C)CCc2c(O)cc(O)c(C(=O)c3ccccc3)c2O1", "values": [{"measurement": "PC50", "setting": "PANC-1 [1]", "result": 12.3, "unit": "µM"}, {"measurement": "Activity", "setting": "PANC-1 [2]", "result": "Non-Toxic"}]}, {"molecule": "CC(C)(O)[C@@H]1CC[C@@]2(C)C[C@@H]1c1c(O)cc(O)c(C(=O)c3ccccc3)c1O2", "values": [{"measurement": "PC50", "setting": "PANC-1 [1]", "result": 4.9, "unit": "µM"}, {"measurement": "Activity", "setting": "PANC-1 [3]", "result": "Dose-Dependent Effect"}, {"measurement": "Activity", "setting": "PANC-1 [2]", "result": "Non-Toxic"}, {"measurement": "inhibition", "setting": "PANC-1 [4]", "result": "Dose-Dependent Effect"}, {"measurement": "Activity", "setting": "PANC-1 [5]", "result": "Dose-Dependent Effect"}, {"measurement": "Activity", "setting": "PANC-1 [6]", "result": "Dose-Dependent Effect"}, {"measurement": "Activity", "setting": "PANC-1 [7]", "result": "Active"}, {"measurement": "inhibition at 20 µM", "setting": "PANC-1 [8]", "result": 45, "unit": "%"}, {"measurement": "inhibition at 40 µM", "setting": "PANC-1 [9]", "result": 64, "unit": "%"}, {"measurement": "Activity", "setting": "PANC-1 [10]", "result": "Active"}, {"measurement": "Activity", "setting": "PANC-1 [11]", "result": "Active"}, {"measurement": "Activity", "setting": "PANC-1 [12]", "result": "Active"}]}, {"molecule": "COc1cccc2c(=O)c3c(O)cccc3oc12", "values": [{"measurement": "PC50", "setting": "PANC-1 [1]", "result": 61, "unit": "µM"}, {"measurement": "Activity", "setting": "PANC-1 [2]", "result": "Non-Toxic"}]}, {"molecule": "O=c1c2ccc(O)cc2oc2ccc(O)cc12", "values": [{"measurement": "PC50", "setting": "PANC-1 [1]", "result": 45.2, "unit": "µM"}, {"measurement": "Activity", "setting": "PANC-1 [2]", "result": "Non-Toxic"}]}, {"molecule": "CC(C)=CCC/C(C)=C/CC[C@@]1(C)Oc2c(c(O)cc(O)c2C(=O)c2ccccc2)C[C@H]1O", "values": [{"measurement": "PC50", "setting": "PANC-1 [1]", "result": 6.7, "unit": "µM"}, {"measurement": "Activity", "setting": "PANC-1 [2]", "result": "Non-Toxic"}]}, {"molecule": "COc1cc2c(=O)c3ccccc3oc2cc1O", "values": [{"measurement": "PC50", "setting": "PANC-1 [1]", "result": ">100", "unit": "µM"}, {"measurement": "Activity", "setting": "PANC-1 [2]", "result": "Non-Toxic"}]}, {"molecule": "COc1cc(C[C@H]2C(=O)OC[C@@H]2Cc2ccc(OC)c(OC)c2)ccc1O", "note": "[ARCTIGENIN]", "values": [{"measurement": "PC50", "setting": "PANC-1 [1]", "result": 0.7, "unit": "µM"}]}, {"molecule": "O=C(c1ccccc1O)c1cc(O)ccc1O", "values": [{"measurement": "PC50", "setting": "PANC-1 [1]", "result": 42.5, "unit": "µM"}, {"measurement": "Activity", "setting": "PANC-1 [2]", "result": "Non-Toxic"}]}, {"molecule": "CC(C)=CCC/C(C)=C/CC[C@@](C)(O)CCc1c(O)cc(O)c(C(=O)c2ccccc2)c1O", "values": [{"measurement": "PC50", "setting": "PANC-1 [1]", "result": 5.9, "unit": "µM"}, {"measurement": "inhibition (INH)", "setting": "PANC-1 [13]", "result": ">60", "unit": "%"}, {"measurement": "Activity", "setting": "PANC-1 [3]", "result": "Dose-Dependent Effect"}, {"measurement": "Activity", "setting": "PANC-1 [2]", "result": "Non-Toxic"}, {"measurement": "inhibition", "setting": "PANC-1 [4]", "result": "Dose-Dependent Effect"}, {"measurement": "Activity", "setting": "PANC-1 [5]", "result": "Dose-Dependent Effect"}, {"measurement": "Activity", "setting": "PANC-1 [6]", "result": "Dose-Dependent Effect"}]}, {"molecule": "CC(C)=CCC/C(C)=C/CC/C(C)=C/Cc1c(O)cc(O)c(C(=O)c2ccccc2)c1O", "values": [{"measurement": "PC50", "setting": "PANC-1 [1]", "result": 8.3, "unit": "µM"}, {"measurement": "Activity", "setting": "PANC-1 [2]", "result": "Non-Toxic"}]}]}
